In patent publication US7138491B2, “Carboline-3-carboxylic acid modified related sequences of Ala-Arg-Pro-Ala-Lys, their synthesis and use as thromobolytic agent” (Guangzhou Bai Yun Shan Pharmaceutical Co., Ltd., priority 2003, dated 2006):
Marks after values point to notes of the source that are not given here.

Assays:
fibrin plate = test: In vitro fibrinolytic lysis on fibrin plate (fibrinogen-agarose); type: biochemical, rabbit; details: dosage per well differs per compound (0.8-2.2 μg; UK 5 IU); n = 6; NS control 21.01 ± 9.26
Method: The plates were prepared by mixing equal volumes of 0.3% rabbit fibrinogen and 0.95% agarose solutions, both dissolved in 50 mM of barbital buffer (pH 7.8, contained 1.66 mM of CaCl2, 0.68 mM of MgCl2 and 93.96 mM of NaCl)^[6]. The fibrinogen-agarose mixture was coagulated with […] thrombin (100 IU: ml) in the plastic dishes (its diameter is 90 mm and the depth of the fibrin plate is 1 mm). After 30 min at 4° C. an adequate number of wells, 5 mm in diameter, were perforated. To determine fibrinolytic activity […] aliquots of the tested pseudopeptides were added to each well, the plate was incubated, and areas of lysis were quantified as described for the regular fibrin plates.

[1] = test system: rabbit euglobulin fraction; test: In vitro euglobulin clot lysis time (ECLT); type: biochemical; details: dosage differs per compound (1.3-6.7 μg; UK 5 IU); 96 well microtiter plate; n = 6; NS control 200.01 ± 15.26
Method: The rabbit euglobulin fraction was prepared according to the literature^[6]. Plasma diluted […] in distilled water was precipitated at pH 5.7 with acetic acid (0.25%). After 30 min at 4° C. the suspension was centrifuged at 2000 g for 15 min and the precipitate was resuspended to the initial plasma volume with 50 mM barbital buffer (pH 7.8, contained 1.66 mM of CaCl2, 0.68 mM of MgCl2 and 93.96 mM of NaCl). Euglobulin clot lysis time (ECLT) of the tested pseudopeptide was measured using a 96 well microtiter plate^[7] and the data are listed in Table 2.

thrombus = test: In vivo thrombolytic activity, thrombus on steel helix in extracorporeal circulation; details: male Wistar rats; injected; dose differs per compound (3.1-8.2 mg/kg; UK 20000 IU); blood circulated 90 min; n = 10; NS control 12.31 ± 2.57
Method: Male Wistar rats weighing 200–300 g (purchased from Animal Center of Peking University) were anesthetized with pentobarbital sodium (80.0 mg/kg, ip). The right carotid artery and left vein jugular of the animals were separated. To the glass tube filled with artery blood (1.0 ml) from the right carotid artery of the animal a stainless steel filament helix (15 circles; L, 15 mm; D, 1.0 mm) was put immediately. After 15 minutes the helix with thrombus was carefully taken out and weighted exactly, which was put into the middle polyethylene tube. The polyethylene tube was full with heparin sodium (50 IU/ml of NS) and one end was inserted into the left jugular vein. Heparin sodium was injected via the other end of the polyethylene tube as the anticoagulant, following which the tested pseudopeptide was injected. The blood was circulated through the polyethylene tube for 90 min, after which the helix was taken out and weighted accurately.

Row | Substance | Effect of the pseudopeptides on fibrin plate, areas of lysis, x ± SD (fibrin plate) | Euglobulin clot lysis time, x ± SD [1] | The reduction of thrombolytic mass, x ± SD (thrombus)
1 | 3S-(2-Pro-Ala-Lys)-1,2,3,4-tetrahydro-β-carboline-3-carboxylic acid [compound 30] | 139.39 ± 9.52^a mm^2 | 96.56 ± 30.42^a min | 26.56 ± 2.42^b mg
2 | H-ARPAK-OH [compound 1, H-Ala-Arg-Pro-Ala-Lys-OH] | 119.12 ± 12.44^a mm^2 | 90.12 ± 17.64^a,b min | 18.84 ± 3.18^1)2) mg
3 | H-Ala-Arg-Pro-Ala-OH (H-ARPA-OH) [compound 10] | 31.01 ± 9.26 mm^2 | 214.01 ± 28.26 min | 14.01 ± 2.26 mg
4 | H-Ala-Arg-Pro-OH [compound 9] | 23.16 ± 9.05 mm^2 | 203.81 ± 29.50 min | 13.81 ± 2.50 mg
5 | H-Arg-Arg-Pro-Ala-Lys-OH (H-RRPAK-OH) [compound 6] | 33.77 ± 10.05 mm^2 | 213.31 ± 27.75 min | 13.31 ± 2.75 mg
6 | H-Arg-Pro-Ala-Lys-OH (H-RPAK-OH) [compound 7] | 125.33 ± 10.10^a mm^2 | 85.22 ± 20.40^a,b min | 18.22 ± 2.40^a mg
7 | H-Asn-Arg-Pro-Ala-Lys-OH (H-NRPAK-OH) [compound 5] | 22.66 ± 9.46 mm^2 | 212.88 ± 29.66 min | 12.88 ± 2.66 mg
8 | H-Gln-Arg-Pro-Ala-Lys-OH (H-QRPAK-OH) [compound 4] | 136.28 ± 10.62^a mm^2 | 86.28 ± 20.46^a,b min | 21.28 ± 3.46^1)2) mg
9 | H-Gly-Arg-Pro-Ala-Lys-OH (H-GRPAK-OH) [compound 2] | 125.90 ± 11.15^a mm^2 | 89.90 ± 20.05^a,b min | 25.90 ± 2.05^1) mg
10 | H-Lys-Arg-Pro-Ala-Lys-OH (H-KRPAK-OH) [compound 3] | 38.99 ± 9.06 mm^2 | 221.28 ± 23.46 min | 21.28 ± 3.46^1)2) mg
11 | H-Pro-Ala-Lys-OH [compound 8] | 138.06 ± 9.39^a mm^2 | 80.68 ± 20.34^a,b min | 23.68 ± 2.34^a mg
